PMC11391541, “Target-Directed Dynamic Combinatorial Chemistry Affords Binders of Mycobacterium tuberculosis IspE” (ACS Omega, 2024)

Key:
[1] = in vitro; conditions: human, HepG2 CC50, HepG2, 48 h, MTT
[2] = test system: EcK12; assay: E. coli growth inhibition, wild-type strain K12; assay type: cell-based, Escherichia coli; conditions: 18 h, LB medium; for inhibition at 50 µM: Escherichia coli, read-out: EcK12 %inh. At 50 μM
[3] = solubility in M. tuberculosis 7H9 growth medium; assay type: physicochemical; conditions: M. tuberculosis 7H9 growth medium, plasma or biological fluid, kinetic from dmso stock; Mtb 7H9 growth medium
Experimental: Prior to biological evaluation of the tdDCC hits, we tested their solubility in a standard buffer as well as in M. tuberculosis 7H9 growth medium. […] Regrettably, with 3.3 μM the least soluble compound is E1, making our most amplified and promising compound unsuitable for biological evaluation. We assessed the solubility in Mtb growth medium given that it is a complex, nutrient-rich environment with a distinct solubility profile. However, the trend continued, only seven hits are soluble at 8 μM or above, the remaining five compounds, including E1, were not eligible for antitubercular activity testing (Table 1).
Determination of in vitro anti-tubercular activity and solubility in 7H9 medium Anti-tubercular tests were performed as previously described .1 In brief, 7H9 complete medium (BD Difco; Becton Dickinson, Maryland,USA) supplemented with 10% OADC (BD), 0.2% glycerol, and 0.05% Tween80 as previously described ,3 was used to culture Mycobacterium tuberculosis (Mtb) strain H37Rv (ATCC 25618) carrying a mCherry -expressing plasmid (pCherry10 ).4 Cultures were harvested at mid-log phase and frozen in aliquots at – 80 °C. Prior to testing aliquots were thawed followed by centrifugation and the pellet was resuspended in 7H9 medium with 10% OADC (without glycerol and Tween80). This was further thoroughly resuspended by passing it through a syringe with a 26 -gauge needle to avoid clumping of the bacteria. 2×10^5 CFU (colony forming units) were then cultured in a total volume of 100 μl culture medium (triplicates) to test the non-precipitating compounds for the anti-tubercular activity at the concentrations indicated. For these assays, 96-well flat clear bottom black polystyrene microplates (Corning® CellBIND®, Merck, New York, USA) wer e used. Each plate had Rifampicin (at 1 μg/ml and 0.1 μg/ml) (National Reference Center, Borstel) as a reference compound. Plates were sealed with an air -permeable membrane (Porvair Sciences, Wrexham, UK) in a 37 °C incubator with mild agitation (TiMix5, Edmund Bühler, Germany). The activity of compounds was determined after 7 days by measuring the bacterial growth as relative light units (RLU) from the fluorescence intensity obtained at an excitation wavelength of 575 nm and an emission wavelength of 635 n m in a microplate reader (Synergy 2, BioTek Instruments, Vermont, USA). Two independent experiments (each in triplicates) were performed, and all values were normalized to untreated control sample (100%) in each experiment.
To obtain information regarding the toxicity of our compounds, their impact on the viability of human cells was investigated. HepG2 cells (2x10^4 cells per well) were seeded in 96 -well, flat-bottomed culture plates in 100 µL culture medium (DMEM containing 10% fetal calve serum, 1% penicillin -streptomycin). Twenty-four hours after seeding the cells, medium was removed and replaced by medium containing test compounds in a final DMSO concentration of 1%. Compounds were tested in duplicates at a single concentration or, for CC50 determination, at 8 concentrations that were prepared via 2 -fold serial dilutions in 1% DMSO/medium. Epirubicin and doxorubicin were used as positive controls in serial dilutions starting from 10 µM, and rifampicin was used as a negative control (at 100 µM). The living cell mass was determined 48 h after treatment with compounds by adding 0.1 volumes of 3 -(4,5-dimethylthiazol-2-yl)-2,5-diphenyltetrazolium bromide (MTT) solution (5 mg/mL sterile PBS) (Sigma, St. Louis, MO) to the wells. After incubating the cells for 30 min at 37 °C (atmosphere containing 5% CO2), medium was removed and MTT crystals were dissolved in 75 µL of a solution containing 10% SDS and 0.5% acetic acid in DMSO. The optical density (OD) of the samples was determined photometrically at 570 nm in a PHERAstar Omega plate reader (BMG labtech, Ortenberg, Germany). To obtain percent viability for each sample, their ODs were related to those of DMSO controls. […]

[4] = test system: fungi; parameters: method as in PMID 25943854; conditions: cited from earlier work

## COc1ccc(-c2cc(/C=N/NC(=O)c3cc(CC(C)C)n[nH]3)no2)cc1 [D6, (E)-3-Isobutyl-N′-((5-(4-methoxyphenyl)isoxazol-3-yl)methylene)-1H-pyrazole-5-carbohydrazide]
[1]
  CC50: > 50 µM
[2]
  inhibition at 50 µM: < 10%
[3]
  solubility: 16 µM

## O=C(N/N=C/c1ccc(C(F)(F)F)cc1)c1cccc(Cl)c1 [K4, (E)-3-Chloro-N′-(4-(trifluoromethyl)benzylidene)benzohydrazide]
[1]
  CC50: > 50 µM
[2]
  inhibition at 50 µM: 12 ± 4%
[3]
  solubility: 8 µM

## O=C(N/N=C/c1cc(Cl)ccc1O)c1ccncc1 [L1, (E)-N′-(5-Chloro-2-hydroxybenzylidene)isonicotinohydrazide]
[1]
  CC50: ~50 µM
[4]
  antifungal properties: antifungal properties
[2]
  EcK12 %inh. At 50 μM: appreciable effect
  inhibition at 50 µM: 18 ± 6%
[3]
  solubility: 16 µM
